Key:
Format in all cases: biochemical
Settings in all cases: TR-FRET coactivator (SRC-1) recruitment
[1] = target: T1, PPARδ receptor (GST-hPPARδ LBD) (Homo sapiens, UniProt Q03181); test: PPARδ functional binding assay (CARLA, TR-FRET)
T1 construct: GST-hPPARδ LBD (amino acids 139–442); made in house; host or cells: E. coli BL21 (DE3), pGEX vector
T1 sequence (Q03181 139-441 limits assumed): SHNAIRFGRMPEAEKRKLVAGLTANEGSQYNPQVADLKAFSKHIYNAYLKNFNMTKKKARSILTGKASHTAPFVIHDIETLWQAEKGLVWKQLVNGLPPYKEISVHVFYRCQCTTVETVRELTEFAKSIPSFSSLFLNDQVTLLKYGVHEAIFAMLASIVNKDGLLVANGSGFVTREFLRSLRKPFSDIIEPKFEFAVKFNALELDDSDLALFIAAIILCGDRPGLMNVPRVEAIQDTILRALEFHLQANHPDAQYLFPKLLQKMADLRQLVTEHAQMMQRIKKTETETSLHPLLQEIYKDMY
T1 sequence (Q15788 676-700 partner limits assumed): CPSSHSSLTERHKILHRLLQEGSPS
Protocol: (§1) The in vitro functional binding to the PPARα, PPARδ and PPARγ receptors is determined as follows:
(§2) The functional binding assays for the PPARα, PPARδ and PPARγ receptors are a variation of the coactivator-dependent receptor ligand assay (CARLA) (see Krey et al., “Fatty Acids, Eicosanoids, and Hypolipidemic Agents Identified as Ligands of Peroxisome Proliferator-Activated Receptors by Coactivator-Dependent Receptor Ligand Assay”, Molecular Endocrinology, Vol. 11, pp. 779–791 (1997)). The present CARLA assays use a TR-FRET detection method previously reviewed (see Hemmila, “LANCE: Homogeneous Assay Platform for HTS”, J. Biomol. Screening, Vol. 4, pp. 303–307 (1999); Mathis, “HTRF Technology”, J. Biomol. Screening, Vol. 4, pp. 309–313 (1999)). All assays included 3 nM of the glutathione-S-transferase (GST) fusion proteins of either the hPPARα ligand binding domain (LBD) (amino acids 167–468) (GST-hPPARα LBD), GST-hPPARδ LBD (amino acids 139–442) or GST-hPPARγ LBD (amino acids 175–476); 3 nM Eu-labeled anti-GST antibody (Wallac); 30 nM biotinylated steroid receptor coactivator-1 (SRC-1) peptide (an N-terminal biotinylated peptide, […], derived from amino acids 676–700 of SRC-1); and 10 nM streptavidin-labelled allophycocyanin (APC; Prozyme). The binding of a ligand to a PPAR LBD alters the conformation of the LBD and permits the biotinylated SRC-1 peptide to bind. This brings the Eu-labeled anti-GST antibody and the strepavidin-labeled APC in close proximity, thereby facilitating fluorescence energy transfer. The biotinylated SRC-1 peptide is prepared by standard solid-phase peptide synthetic methods. The GST-PPAR LBDs are expressed in pGEX vectors (Amersham Pharmacia) in the E. coli strain BL21 (DE3) using standard expression conditions at 18° C. In some cases the GST-PPAR LBDs are co-expressed with groESL. […] After mixing all components, the reaction mixture stands for 3 hours at room temperature before reading the TR-FRET (Time-Resolved Fluorescence Resonance Energy Transfer) signal on a Wallac Victor 2 plate reader (measuring the ratio of signals at […]). […]

[2] = target: T2, PPARγ receptor (GST-hPPARγ LBD) (Homo sapiens, UniProt P37231); test: PPARγ functional binding assay (CARLA, TR-FRET)
T2 construct: GST-hPPARγ LBD (amino acids 175–476); made in house; host or cells: E. coli BL21 (DE3), pGEX vector
T2 sequence (P37231 175-476 isoform P37231-2): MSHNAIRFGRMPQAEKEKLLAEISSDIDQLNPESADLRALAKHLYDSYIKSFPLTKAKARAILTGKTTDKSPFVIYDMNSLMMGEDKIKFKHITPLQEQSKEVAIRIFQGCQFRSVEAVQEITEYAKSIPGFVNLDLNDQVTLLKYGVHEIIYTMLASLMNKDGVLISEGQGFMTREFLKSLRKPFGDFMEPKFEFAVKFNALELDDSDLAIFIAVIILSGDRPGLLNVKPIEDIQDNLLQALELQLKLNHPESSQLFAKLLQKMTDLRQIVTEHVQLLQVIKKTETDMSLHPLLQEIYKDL
Protocol: as §1, §2

[3] = target: T3, PPARα receptor (GST-hPPARα LBD) (Homo sapiens, UniProt Q07869); test: PPARα functional binding assay (CARLA, TR-FRET)
T3 construct: made in house; host or cells: E. coli BL21 (DE3), pGEX vector
T3 sequence (Q07869 167-468): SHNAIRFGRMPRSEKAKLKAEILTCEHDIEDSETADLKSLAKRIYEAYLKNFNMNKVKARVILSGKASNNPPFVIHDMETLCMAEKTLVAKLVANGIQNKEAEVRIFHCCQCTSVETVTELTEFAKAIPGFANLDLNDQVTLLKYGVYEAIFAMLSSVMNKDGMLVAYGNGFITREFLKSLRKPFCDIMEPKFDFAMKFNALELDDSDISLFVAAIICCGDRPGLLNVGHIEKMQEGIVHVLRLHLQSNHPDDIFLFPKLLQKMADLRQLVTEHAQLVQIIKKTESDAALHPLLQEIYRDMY
Protocol: as §1, §2

EC50 [1] [nM] | EC50 [2] [nM] | EC50 [3] [nM] | SMILES
~1160 | ~2 | ~7 | Cc1oc(-c2ccccc2)nc1COc1ccc(S(=O)(=O)N2CCC[C@@H]2C(=O)O)cc1 [Example 6–39, (R)-1-[4-(5-Methyl-2-phenyl-oxazol-4-ylmethoxy)-benzenesulfonyl]-pyrrolidine-2-carboxylic acid]
~173 | ~23 | ~27 | CCCc1cc(Oc2ccccc2)ccc1OCCCOc1ccc(S(=O)(=O)N2c3ccccc3C[C@@H]2C(=O)O)cc1 [Example 1, (R)-1-{4-[3-(4-Phenoxy-2-propyl-phenoxy)-propoxy]-benzenesulfonyl}-2,3-dihydro-1H-indole-2-carboxylic acid]
~1250 | ~3 | ~3 | Cc1oc(-c2ccccc2)nc1COc1ccc(S(=O)(=O)N2CC[C@@H]2C(=O)O)cc1 [Example 5–10, (R)-1-[4-(5-Methyl-2-phenyl-oxazol-4-ylmethoxy)-benzenesulfonyl]-azetidine-2-carboxylic acid]

— patent publication US7183304B2, “Heterocyclic compounds and methods of use” (Novartis AG, priority 2001, dated 2007)
